{
  "source": "patent US12018016B2",
  "about": "“Aryl sulfonyl (hydroxy) piperidines as CCR6 inhibitors” (CHEMOCENTRYX, INC., priority 2021, dated 2024)",
  "data": [
    {"biological_target": "T1, human CCR6 (Homo sapiens, UniProt P51684)", "T1 construct": "expressed in transfected cells; host or cells: Ba/F3 cells (mouse pro-B line)", "T1 sequence (P51684 1-374)": "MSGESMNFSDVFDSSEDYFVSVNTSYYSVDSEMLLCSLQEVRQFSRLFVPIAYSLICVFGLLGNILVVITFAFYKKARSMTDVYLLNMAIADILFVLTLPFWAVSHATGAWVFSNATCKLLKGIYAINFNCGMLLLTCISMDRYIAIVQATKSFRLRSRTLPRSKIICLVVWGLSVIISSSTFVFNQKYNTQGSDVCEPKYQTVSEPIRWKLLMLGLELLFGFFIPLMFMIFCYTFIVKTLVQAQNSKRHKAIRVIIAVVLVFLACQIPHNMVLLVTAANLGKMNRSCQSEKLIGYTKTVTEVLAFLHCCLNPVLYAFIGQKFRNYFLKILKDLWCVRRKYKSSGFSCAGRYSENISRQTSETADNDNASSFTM", "experiment": "Migration assay (chemotaxis, ChemoTX)", "format": "cell-based", "details": "hCCR6-transfected Ba/F3 cells in human serum, migration to recombinant human CCL20 10 nM, 37° C. 45 minutes; read-out: Potency (IC50 value in the migration assay)", "in_short": "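Ba/F3 cells transfected with human CCR6 and butyrate-primed for 24 h were suspended at 4 million/ml in human serum with compound, serially diluted from a 1 μM final top concentration. Cells migrated through a 5-μm polycarbonate membrane toward 10 nM human CCL20 for 45 min at 37 °C. Migrated cells were quantified by CyQUANT fluorescence.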", "units": {"IC50": "nM"}, "values": [
      {"smiles": "Cc1c(-c2ccc(S(=O)(=O)N3CC[C@@H](Nc4ccc(C(F)(F)F)cn4)[C@@H](O)C3)cc2)ccc2[nH]nc(C#N)c12", "note": "[Example 35, 5-(4-(((3S,4R)-3-hydroxy-4-((5-(trifluoromethyl)pyridin-2-yl)amino)piperidin-1-yl)sulfonyl)phenyl)-4-methyl-1H-indazole-3-carbonitrile]", "IC50": "< 1"},
      {"smiles": "N#Cc1cnccc1-c1ccc(S(=O)(=O)N2CC[C@@H](Nc3ccc(C(F)(F)F)cn3)[C@@H](O)C2)cc1", "note": "[Compound 149]", "IC50": "1 to 10"},
      {"smiles": "O=C1NCC[C@@H]1Nc1ccc(-c2ccc(S(=O)(=O)N3CC[C@@H](Nc4ccc(C(F)(F)F)cn4)[C@@H](O)C3)cc2)cn1", "note": "[Compound 170]", "IC50": "< 1"},
      {"smiles": "O=S(=O)(c1ccc(-c2ccnc(N3CC(O)C3)c2)cc1)N1CC[C@@H](Nc2ccc(C(F)(F)F)cn2)[C@@H](O)C1", "note": "[Compound 137]", "IC50": "< 1"},
      {"smiles": "Cn1ccnc1-c1cc(-c2ccc(S(=O)(=O)N3CC[C@@H](Nc4ccc(C(F)(F)F)cn4)[C@@H](O)C3)cc2)ccn1", "note": "[Compound 65, (3S,4R)-1-((4-(2-(1-methyl-1H-imidazol-2-yl)pyridin-4-yl)phenyl)sulfonyl)-4-((5-(trifluoromethyl)pyridin-2-yl)amino)piperidin-3-ol]", "IC50": "10 to 1000"},
      {"smiles": "O=C1NCc2cc(-c3ccc(S(=O)(=O)N4CC[C@@H](Nc5ccc(C(F)(F)F)cn5)[C@@H](O)C4)cc3)ccc21", "note": "[Example 12, 5-(4-(((3S,4R)-3-hydroxy-4-((5-(trifluoromethyl)pyridin-2-yl)amino)piperidin-1-yl)sulfonyl)phenyl)isoindolin-1-one]", "IC50": "< 1"},
      {"smiles": "NC(=O)c1cc(-c2ccc(S(=O)(=O)N3CC[C@@H](Nc4ccc(C(F)(F)F)cn4)[C@@H](O)C3)cc2)cnc1N", "note": "[Example 53, 2-Amino-5-(4-(((3S,4R)-3-hydroxy-4-((5-(trifluoromethyl)pyridin-2-yl)amino)piperidin-1-yl)sulfonyl)phenyl)nicotinamide]", "IC50": "< 1"},
      {"smiles": "Cc1c(-c2ccc(S(=O)(=O)N3CC[C@@H](Nc4ccc(C(F)(F)F)cn4)[C@@H](O)C3)cc2)cnc2[nH]cc(C#N)c12", "note": "[Example 56, 5-(4-(((3S,4R)-3-hydroxy-4-((5-(trifluoromethyl)pyridin-2-yl)amino)piperidin-1-yl)sulfonyl)phenyl)-4-methyl-1H-pyrrolo[2,3-b]pyridine-3-carbonitrile]", "IC50": "< 1"},
      {"smiles": "O=S(=O)(c1ccc(-c2ccc(NC3CCC3)nc2)cc1)N1CC[C@@H](Nc2ccc(C(F)(F)F)cn2)[C@@H](O)C1", "note": "[Compound 103]", "IC50": "1 to 10"},
      {"smiles": "CN1CCN(c2cc(-c3ccc(S(=O)(=O)N4CC[C@@H](Nc5ccc(C(F)(F)F)cn5)[C@@H](O)C4)cc3)ccn2)CC1", "note": "[Compound 113]", "IC50": "10 to 1000"},
      {"smiles": "O=C1CNCCN1c1ccc(-c2ccc(S(=O)(=O)N3CC[C@@H](Nc4ccc(C(F)(F)F)cn4)[C@@H](O)C3)cc2)cn1", "note": "[Compound 179]", "IC50": "< 1"},
      {"smiles": "NC(=O)N1Cc2ccc(-c3ccc(S(=O)(=O)N4CC[C@@H](Nc5ccc(C(F)(F)F)cn5)[C@@H](O)C4)cc3)cc2C1", "note": "[Example 4, 5-(4-(((3S,4R)-3-hydroxy-4-((5-(trifluoromethyl)pyridin-2-yl)amino)piperidin-1-yl)sulfonyl)phenyl)isoindoline-2-carboxamide]", "IC50": "< 1"},
      {"smiles": "Cc1cc(-c2ccc(S(=O)(=O)N3CC[C@@H](Nc4ccc(C(F)(F)F)cn4)[C@@H](O)C3)cc2)cc2cn[nH]c12", "note": "[Example 16, (3S,4R)-1-((4-(7-methyl-1H-indazol-5-yl)phenyl)sulfonyl)-4-((5-(trifluoromethyl)pyridin-2-yl)amino)piperidin-3-ol]", "IC50": "< 1"},
      {"smiles": "Cc1cc(-c2ccc(S(=O)(=O)N3CC[C@@H](Nc4ccc(C(F)(F)F)cn4)[C@@H](O)C3)cc2)cc(C(N)=O)n1", "note": "[Compound 206]", "IC50": "< 1"},
      {"smiles": "CN(C)C(=O)c1cc(-c2ccc(S(=O)(=O)N3CC[C@@H](Nc4ccc(C(F)(F)F)cn4)[C@@H](O)C3)cc2)ccn1", "note": "[Example 40, 4-(4-(((3S,4R)-3-Hydroxy-4-((5-(trifluoromethyl)pyridin-2-yl)amino)piperidin-1-yl)sulfonyl)phenyl)-N,N-dimethylpicolinamide]", "IC50": "1 to 10"},
      {"smiles": "COc1cc(-c2ccc(S(=O)(=O)N3CC[C@@H](Nc4ccc(C(F)(F)F)cn4)[C@@H](O)C3)cc2)ccn1", "note": "[Compound 165]", "IC50": "1 to 10"},
      {"smiles": "Cc1cc(-c2ccc(S(=O)(=O)N3CC[C@@H](Nc4ccc(C(F)(F)F)cn4)[C@@H](O)C3)cc2)cc2c1C(=O)NC2", "note": "[Compound 78, 5-(4-(((3S,4R)-3-hydroxy-4-((5-(trifluoromethyl)pyridin-2-yl)amino)piperidin-1-yl)sulfonyl)phenyl)-7-methylisoindolin-1-one]", "IC50": "< 1"},
      {"smiles": "NC(=O)c1cc(-c2ccc(S(=O)(=O)N3CC[C@@H](Nc4ncc(C(F)(F)F)cn4)[C@@H](O)C3)cc2)ccn1", "note": "[Compound 86, 4-(4-(((3S,4R)-3-hydroxy-4-((5-(trifluoromethyl)pyrimidin-2-yl)amino)piperidin-1-yl)sulfonyl)phenyl)picolinamide]", "IC50": "10 to 1000"},
      {"smiles": "CN1CCN(c2ccc(-c3ccc(S(=O)(=O)N4CC[C@@H](Nc5ccc(C(F)(F)F)cn5)[C@@H](O)C4)cc3)cn2)CC1", "note": "[Compound 115]", "IC50": "< 1"},
      {"smiles": "N#Cc1n[nH]c2ncc(-c3ccc(S(=O)(=O)N4CC[C@@H](Nc5ccc(C(F)(F)F)cn5)[C@@H](O)C4)cc3)cc12", "note": "[Compound 193]", "IC50": "< 1"},
      {"smiles": "O=S(=O)(c1ccc(-c2cc(F)c3[nH]ncc3c2)cc1)N1CC[C@@H](Nc2ccc(C(F)(F)F)cn2)[C@@H](O)C1", "note": "[Compound 120]", "IC50": "< 1"},
      {"smiles": "CN(C)CCN(C)c1ccc(-c2ccc(S(=O)(=O)N3CC[C@@H](Nc4ccc(C(F)(F)F)cn4)[C@@H](O)C3)cc2)cn1", "note": "[Compound 101]", "IC50": "10 to 1000"},
      {"smiles": "Cc1nc2[nH]ccc2c(C)c1-c1ccc(S(=O)(=O)N2CC[C@@H](Nc3ccc(C(F)(F)F)cn3)[C@@H](O)C2)cc1", "note": "[Example 45, (3S,4R)-1-((4-(4,6-dimethyl-1H-pyrrolo[2,3-b]pyridin-5-yl)phenyl)sulfonyl)-4-((5-(trifluoromethyl)pyridin-2-yl)amino)piperidin-3-ol]", "IC50": "< 1"},
      {"smiles": "NC(=O)c1ccnc(-c2ccc(S(=O)(=O)N3CC[C@@H](Nc4ccc(C(F)(F)F)cn4)[C@@H](O)C3)cc2)c1", "note": "[Example 18, 2-(4-(((3S,4R)-3-Hydroxy-4-((5-(trifluoromethyl)pyridin-2-yl)amino)piperidin-1-yl)sulfonyl)phenyl)isonicotinamide]", "IC50": "1 to 10"},
      {"smiles": "O=S(=O)(c1ccc(-c2cccnc2)cc1)N1CC[C@@H](Nc2ccc(C(F)(F)F)cn2)[C@@H](O)C1", "note": "[Compound 162]", "IC50": "< 1"},
      {"smiles": "NS(=O)(=O)c1cc(-c2ccc(S(=O)(=O)N3CC[C@@H](Nc4ccc(C(F)(F)F)cn4)[C@@H](O)C3)cc2)ccn1", "note": "[Compound 181]", "IC50": "< 1"},
      {"smiles": "NC(=O)c1cc(-c2ccc(S(=O)(=O)N3CC[C@@H](Nc4ccc(C(F)(F)F)cn4)[C@@H](O)C3)cc2)cc(O)n1", "note": "[Compound 203]", "IC50": "< 1"},
      {"smiles": "O=C1NCCc2ccc(-c3ccc(S(=O)(=O)N4CC[C@@H](Nc5ccc(C(F)(F)F)cn5)[C@@H](O)C4)cc3)cc21", "note": "[Example 3, 7-(4-(((3S,4R)-3-hydroxy-4-((5-(trifluoromethyl)pyridin-2-yl)amino)piperidin-1-yl)sulfonyl)phenyl)-3,4-dihydroisoquinolin-1(2H)-one]", "IC50": "< 1"},
      {"smiles": "Nc1cncc(-c2ccc(S(=O)(=O)N3CC[C@@H](Nc4ccc(C(F)(F)F)cn4)[C@@H](O)C3)cc2)c1", "note": "[Compound 110]", "IC50": "< 1"}
    ]}
  ]
}
